The target in one series is T1, FRα (KB) (Homo sapiens, UniProt P15328).
T1 construct: endogenous in cells; host or cells: KB cells
The experiment in a line: 3H-EC17 cell-based radioligand binding assay on KB cells. The conditions noted are these: 2 h at 37° C. Here is the method:
FIG. 10, Panel A: Kd values of ^3H-EC17 uptake by FR+ target cells after a 2 hour incubation at 37° C. (calculated from the numbers of molecules bound per cell). Panel B: Kd value of ^3H^−EC17 uptake by E2-CAR-T cells (˜24% EGFRt+, ˜95:5 CD8/CD4 ratio) after a 2 hour incubation at room temperate (calculated from total cell-associated radioactivity, DPM).
The bispecific affinities of EC17 CAM (a CAM is equivalent to a “bridge” or the “compound” in this application) were assessed using ^3H-EC17 in cell-based radioligand binding assays. […] The whole cell lysates were quantitated for the level of radioactivity and cellular protein content by standard Pierce BCA protein assay. The number of ^3H-EC17 molecules bound per cell was calculated to determine the dissociation constants (Kd) for FRα (KB) and FRβ (CHO-β) respectively (FIG. 10).
The EC17 has already been tested in the clinic for immunotherapy and optical imaging purposes. To directly quantify its bispecific binding affinities, ^3H-EC17 was synthesized and radioligand binding assays were carried out on KB and CHO-β cell lines representing FRα+ and FRβ+ target cells, respectively, and on unsorted EGFRt CAR-T cells representing the effector cells.

In series [1] the test system is THP1-FRβ xenografts. As to the kind of experiment: THP1-FRβ AML intravenous xenograft, E2 CAR-T cells plus EC17. The series is classed as in vivo, NSG mice.
Series [2] has as its system THP1-FRβ xenografts. The series is described as above. The series is classed as in vivo, NSG mice. The method, then:
Panel A: Schematic diagrams to show dose scheduling of EC17 plus unsorted EGFRt CAR-T cells (˜6 million, day 0) in NSG mice with 1-day-old intravenous THP1-FRβ xenografts. Starting 3 days after CAR-T cell injection, EC17 was dosed in 3 different ways: EC17 SIW 500 nmol/kg ([…] on days 3, 10, 17, 24, 31, and 38), EC17 TIW 5/50/500 nmol/kg (3 repeats of 5/50/500 nmol/kg on Monday/Wednesday/Friday followed by a 9-day break, i.e. on days 3/5/7, 17/19/21 and 31/33/35), or EC17 M/Th/M_dose escalation on Monday/Thursday/Monday (3 escalation cycles at 5/10/100 nmol/kg in Cycle 1, 5/30/300 nmol/kg in Cycle 2, and 5/50/500 nmol/kg in Cycle 3, i.e. on days 3/6/10, 17/20/24, and 31/34/38). Panel B: Measurements of change in body weight (n=5). Panel C: Circulating CAR-T cells as human CD3ε+ EGFRt+ events found per 100 μL of mouse whole blood on a logarithmic scale on day 31. Panel D: Left bar graph: circulating tumor cells (GFP+) per 100 μL of whole blood in all cohorts measured at the end of study (day 39); Middle bar graph: THP1-FRβ infiltrated liver weights representing liver metastatic burden; Right bar graph: total tumor weights of all non-liver macrometastases. Panel E: Flow cytometric analysis of T-cell exhaustion markers, PD1, LAG3, TIM3, on preinfusion CAR-T cell product (triple-negative) and tumor-infitrating CAR-T cells isolated from liver metastases. A cardinal feature of fully exhausted T cells is co-expression of multiple inhibitory receptor markers (i.e. triple-positive).
One objective of this E2-CAR T-cell study was to test EC17/E2 CAR-T cell activity and related toxicity (e.g. sCRS) using multiple dosing regimens starting 3 days after CAR-T infusion. Three different EC17 dosing regimens include (a) once-a-week (SIW) at 500 nmol/kg, (b) “TIW-like” at 5, 50, and 500 nmol/kg on Monday/Wednesday/Friday with 9-day intervals, and (c) “TIW-like” at […] on Monday/Thursday/Monday with 7-day intervals.
THP-1-FRβ AML tumor cells were grown in folate-deficient RPMI 1640 with 5-10% FBS at 37° C. in a 5% CO2 humidified atmosphere. THP-1-FRβ tumor cells in serum-free folate-deficient RPMI1640 medium were i.v. injected at 5×10^6 cells per animal.
Anti-FITC E2 scFv-CAR T cells were frozen in a T-cell freezing medium. Upon arrival, vials of frozen CAR-T cells were immediately stored at −80° C. The CAR-T cells were quickly thawed at 37° C., washed twice with CAR-T cell culture medium, and used for animal injection at 6 million viable EGFRt+ E2 CAR-T cells (CD4/CD8 at ˜1:1) per animal. A small aliquot was taken on the day infusion for flow cytometric analysis of E2-CAR T-cell phenotypes.
EC17 and bis-EDA-FITC dosing solutions were prepared when dosing began by weighing appropriate amounts of each compound, reconstituting in PBS, pH 7.4, sterile filtering the drug solution through a 0.22 μm PVDF syringe filter, and freezing aliquots for each day of dosing at −20° C.
All EC17 doses were given towards the end of day (3-4 PM) to allow potential CRS (cytokine release syndrome) to develop overnight. In the following morning, animals were scored according to a CRS grading system (see below).
Daily body weight measurement on the days after EC17 dose is required. Attention was given to gross animal morphology and behavior. Euthanasia was performed if mice lose a lot of weight in a short duration or when mice are approaching moribund conditions per CRS grading system or neurotoxicity.
Whole blood cell analysis: Plasma was removed from predetermined volumes of whole EDTA treated blood and RBCs were lysed with RBC lysis solution. […]
This is another data set of the same source.

Each structure is given as a SMILES string. Entries after “also recorded” stand apart in the source; their conditions may differ.

T1 sequence (P15328 25-234): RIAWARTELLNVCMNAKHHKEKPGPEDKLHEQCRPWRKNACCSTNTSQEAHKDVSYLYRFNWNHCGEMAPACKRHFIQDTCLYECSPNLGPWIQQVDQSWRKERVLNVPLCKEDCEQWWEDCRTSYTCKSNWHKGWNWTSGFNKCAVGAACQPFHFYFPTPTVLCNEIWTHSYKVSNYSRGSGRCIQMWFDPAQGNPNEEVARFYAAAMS

As usually defined, the Kd is the free concentration of one partner at which half of the binding sites on the other are occupied at equilibrium, for simple one-to-one binding. A higher Kd goes with weaker binding. Turning to `Nc1nc2ncc(CNc3ccc(C(=O)N[C@@H](CCC(=O)NCCNC(=S)Nc4ccc(-c5c6ccc(=O)cc-6oc6cc(O)ccc56)c(C(=O)O)c4)C(=O)O)cc3)nc2c(=O)[nH]1` [EC17, FA-(γ)-ethylenediamine-FITC], binding at FRα (KB) was characterised by a dissociation constant (Kd) of 1.7 nM. Also, the non-liver macrometastases entry is recorded as “failed to control the non-liver macrometastases” with THP1-FRβ xenografts [1] (EC17 M/Th/M dose escalation at a slow pace per cycle), “successfully controlled non-liver macrometastases” in the series with THP1-FRβ xenografts [2] (EC17 SIW 500 nmol/kg) and “successfully controlled non-liver macrometastases” in the series with THP1-FRβ xenografts [2] (EC17 TIW 5/50/500 nmol/kg on/off). Further, the body weight loss result is given as “little body weight loss during the first two cycles; also recorded: very mild body weight loss” with THP1-FRβ xenografts [1] (~6 million E2 CAR-T + EC17 M/Th/M dose escalation, 6-day break (Cohort 5)); “EC17 dose-dependent body weight loss after each EC17 dose; also recorded: some body weight loss” with THP1-FRβ xenografts [2] (~6 million E2 CAR-T + EC17 SIW 500 nmol/kg (Cohort 3)); “mildest body weight loss among three treatment groups; also recorded: least body weight loss” in the series on THP1-FRβ xenografts [2] (~6 million E2 CAR-T + EC17 TIW 5/50/500 nmol/kg M/W/F, 9-day break (Cohort 4)). The CRS grade in the series on THP1-FRβ xenografts [2] (EC17 SIW 500 nmol/kg (Cohort 3)) is 1-2. Also, in the series on THP1-FRβ xenografts [2] (EC17 TIW 5/50/500 nmol/kg on/off (Cohort 4)), the “overall anti-tumor activity / THP1-FRβ tumor burden, comparison of regimens” value was “best anti-tumor activity among the three different EC17 dose schedules; also recorded: trended to be the best regimen for reducing overall THP1-FRβ tumor burden”. For the same compound, the “circulating THP1-FRβ tumor cells (GFP+) per 100 μL whole blood” value in the series with THP1-FRβ xenografts [2] (all three EC17 dosing regimens, day 39) is “significant reduction in circulating THP1 cell burden; also recorded: effectively reduced circulating THP1-FRβ tumor cells in the blood”. Further, the “severe CRS (grades ≥3)” value in the series on THP1-FRβ xenografts [2] (any EC17 treated cohort (SIW, TIW, M/Th/M)) is reported as “no severe CRS”.

The record behind these values is patent US12240870B2, “Sequencing method for CAR T cell therapy” (Purdue Research Foundation, priority 2018, dated 2025).
